Test results as given in patent US20030139391A1 (priority 2000, published 2003).

Test system: patients
Assay: ADAS-cog in earlier study with quicker titration
Type: in vivo, human
Conditions: for ADAS-cog: Actual Drug Mean (SE): raw mean
Protocol: An improvement in tolerability at this dose was seen, but this dose was suboptimal from an efficacy standpoint.
Statistical analysis of the results of the ADAS-cog score is shown below in Table 7. […] This indicated a significant improvement of the patients' cognitive function at this dose level. The treatment with 36 mg/day in this study was terminated at an early point and thus there was insufficient information for a well defined comparison with the placebo.

SMILES: COc1ccc2c3c1O[C@H]1C[C@@H](O)C=C[C@@]31CCN(C)C2 [GAL, galantamine]
- ADAS-cog: Mean estimate GAL-Placebo Difference (18 mg/day): −1.69
- ADAS-cog: Z, measure of advantage of galantamine over placebo (18 mg/day): 9.9
- ADAS-cog: Actual Drug Mean (SE) (18 mg/day): 0.5 (0.70)
- ADAS-cog: Mean estimate GAL-Placebo Difference (24 mg/day): −3.34
- ADAS-cog: Z, measure of advantage of galantamine over placebo (24 mg/day): 13.4
- ADAS-cog: Actual Drug Mean (SE) (24 mg/day): 0.7 (0.9)
- ADAS-cog: Mean estimate GAL-Placebo Difference (36 mg/day): −1.93
- ADAS-cog: Z, measure of advantage of galantamine over placebo (36 mg/day): 7.8
- ADAS-cog: Actual Drug Mean (SE) (36 mg/day): 1.1 (0.9)
